Laboratory results: EP4714939A1, “SULFONAMIDE COMPOUND, PREPARATION METHOD THEREFOR, AND PHARMACEUTICAL USE THEREOF” (Shenzhen Salubris Pharmaceuticals Co., Ltd., priority 2023, dated 2024)

Legend:
in vivo = conditions: cynomolgus monkey
Excerpt: (§1) Cynomolgus monkey: male, 3-6 kg, purchased from Guangzhou Huazhen biotechnology Co., Ltd. and Hainan Jingang Biotech Co., Ltd.

Lp(a) = experiment: In-vitro Lp(a) assembly assay (cell-free, sandwich ELISA); format: biochemical; conditions: inhibition of Lp(a) formation; HepG2 and HEK293 (human Apo(a), 17 Kringle repeats) conditioned media, 37°C, 2 hours; 4-parameter curve
Experimental: The capability of the compounds in the examples inhibiting the formation of Lp(a) particles in vitro was evaluated through cell-free assembly assay. After incubation at 37°C with 5% CO2 for 96 h, conditioned media (supplemented with 10% FBS, 20 mM HEPES, and 1 × penicillin/streptomycin DMEM) was collected from confluent wild-type HepG2 cells (source of endogenously expressed ApoB) and an HEK293 stable cell line expressing human Apo(a) protein containing 17 Kringle repeats (selected on 1 ug/ml puromycin). In-vitro assembly assay was performed by combining equal parts of HepG2 and HEK293 conditioned media with compounds under test added in a dilution series (final concentration being 0.03-1000 nM). A reaction was incubated at 37°C for 2 hours, and terminated by adding 6-aminocaproic acid (EACA) to a final concentration of 150 mM. Sandwich ELISA was used to detect Lp(a) using an anti-Apo(a) capture antibody (ab242565) and an HRP-conjugated anti-ApoB detection antibody (ab27622). ELISA was performed using TMB staining, and terminated with 1N sulfuric acid, and signals were read at 450 nm on an Envision 2104 plate reader. By setting an assembly reaction without inhibitors to 0% inhibition and an assembly reaction with the minimum amount of HepG2 conditioned medium (50-fold dilution) to 100% inhibition, the % inhibition of Lp(a) formed under each test condition was determined. Table 1 IC90 values of sulfonamide compounds

[1] = Pharmacokinetic experiment for monkeys; conditions: Cynomolgus monkey, 5 mg/kg, p.o
Excerpt: as §1

Compound | IC90 (Lp(a)) [nM] | other results
O=C(O)[C@@H](Cc1cccc(S(=O)(=O)N(Cc2ccc(F)c(C[C@H](C(=O)O)[C@H]3CCNC3)c2)Cc2ccc(F)c(C[C@H](C(=O)O)[C@H]3CCNC3)c2)c1)[C@H]1CCNC1 [Compound 9] | 45.8 | AUC(0-t) (in vivo; po, 5 mg/kg): 22100 ng·h/mL; Cmax (in vivo; po, 5 mg/kg): 1690 ng/mL; F [1]: 7.49%
O=C(O)[C@@H](Cc1cccc(CN(Cc2cccc(C[C@H](C(=O)O)[C@H]3CCNC3)c2)S(=O)(=O)c2cccc(C[C@H](C(=O)O)[C@H]3CCNC3)c2)c1)[C@H]1CCNC1 [Compound 1] | 49.9 | AUC(0-t) (in vivo; iv, 0.5 mg/kg): 41000 ng·h/mL; half-life (in vivo; iv, 0.5 mg/kg): 21 h
O=C(O)C(Cc1ccc(F)c(CN(Cc2cc(CC(C(=O)O)C3CCNC3)ccc2F)S(=O)(=O)c2ccc(F)c(CC(C(=O)O)C3CCNC3)c2)c1)C1CCNC1 [Compound 34, (2S,2'S)-3,3'-(((((3-((S)-2-carboxyl-2-((R)-pyrrolid-3-yl)ethyl)-4-fluorophenyl)sulfonyl)azadiyl)bis(methylenyl))bis(6-fluoro-3,1-phenylenyl))bis(2-((R)-pyrrolid-3-yl)propanoic acid)] | 17.7 | 
O=C(O)[C@@H](Cc1cccc(CN(CCc2ccccc2C[C@H](C(=O)O)[C@H]2CCNC2)S(=O)(=O)c2cccc(C[C@H](C(=O)O)[C@H]3CCNC3)c2)c1)[C@H]1CCNC1 [Compound 3] | 61 | AUC(0-t) (in vivo; iv, 0.5 mg/kg): 33300 ng·h/mL; half-life (in vivo; iv, 0.5 mg/kg): 31.6 h
O=C(O)C(Cc1cccc(S(=O)(=O)N(Cc2ccc(Cl)c(CC(C(=O)O)C3CCNC3)c2)Cc2ccc(Cl)c(CC(C(=O)O)C3CCNC3)c2)c1)C1CCNC1 [Compound 40, (2S,2'S)-3,3'-(3-((S)-2-carboxyl-2-((R)-pyrrolid-3-yl)ethyl)phenyl)sulfonyl)azadiyl)dimethylenyl)bis(6-chloro-3,1-phenylenyl)bis(2-(R)-pyrrolid-3-yl)propanoic acid)] | 15.7 | 
O=C(O)C(Cc1cccc(CN(Cc2cccc(CC(C(=O)O)C3CCNC3)c2)S(=O)(=O)c2ccc(Cl)c(CC(C(=O)O)C3CCNC3)c2)c1)C1CCNC1 [Compound 35, (2S,2'S)-3,3'-(((((3-((S)-2-carboxyl-2-((R)-pyrrolid-3-yl)ethyl)-4-chlorophenyl)sulfonyl)azadiyl)bis(methylenyl))bis(3,1-phenylenyl))bis(2-((R)-pyrrolid-3-yl)propanoic acid)] | 41.3 | 
O=C(O)[C@@H](Cc1cccc(CN(Cc2ccc(F)c(C[C@H](C(=O)O)[C@H]3CCNC3)c2F)S(=O)(=O)c2cccc(C[C@H](C(=O)O)[C@H]3CCNC3)c2)c1)[C@H]1CCNC1 [Compound 30] | 29 | 
O=C(O)[C@@H](Cc1cc(CN(Cc2ccc(F)c(C[C@H](C(=O)O)[C@H]3CCNC3)c2)S(=O)(=O)c2ccc(Cl)c(C[C@H](C(=O)O)[C@H]3CCNC3)c2)ccc1F)[C@H]1CCNC1 [Compound 36, (2S,2'S)-3,3'-(((((3-((S)-2-carboxyl-2-((R)-pyrrolid-3-yl)ethyl)-4-chlorophenyl)sulfonyl)azadiyl)bis(methylenyl))bis(6-fluoro-3,1-phenylenyl))bis(2-((R)-pyrrolid-3-yl)propanoic acid)] | 21.6 | 
O=C(O)[C@@H](Cc1cccc(S(=O)(=O)N(CCc2ccccc2C[C@H](C(=O)O)[C@H]2CCNC2)Cc2cc(C[C@H](C(=O)O)[C@H]3CCNC3)ccc2F)c1)[C@H]1CCNC1 [Compound 26] | 86.7 | 
O=C(O)C(Cc1cccc(CN(Cc2cccc(CC(C(=O)O)C3CCNC3)c2)S(=O)(=O)c2cc(CC(C(=O)O)C3CCNC3)ccc2F)c1)C1CCNC1 [Compound 29, (2S,2'S)-3,3'(5-((S)-2-carboxyl-2-(R)-pyrrolid-3-yl)ethyl)-2-fluorophenyl sulfonyl)azadiyl)dimethylenyl)bis(3,1-phenylenyl)bis(2-(R)-pyrrolid-3-yl)propanoic acid)] | 24.9 | 
O=C(O)[C@@H](Cc1cccc(CCN(Cc2cccc(C[C@H](C(=O)O)[C@H]3CCNC3)c2)S(=O)(=O)c2cccc(C[C@H](C(=O)O)[C@H]3CCNC3)c2)c1)[C@H]1CCNC1 [Compound 20] | 30.7 | 
O=C(O)[C@@H](Cc1cccc(CN(Cc2cc(C[C@H](C(=O)O)[C@H]3CCNC3)ccc2F)S(=O)(=O)c2cccc(C[C@H](C(=O)O)[C@H]3CCNC3)c2)c1)[C@H]1CCNC1 [Compound 4] | 40.3 | 
